In ChEMBL document CHEMBL4396887, “Five-Membered N-Heterocyclic Scaffolds as Novel Amino Bioisosteres at γ-Aminobutyric Acid (GABA) Type A Receptors and GABA Transporters” (J Med Chem, 2019):
Calls of active or inactive are those of the source. The rule behind the calls is not given here.

Key:
[1] = biological target: T1, Gamma-aminobutyric acid receptor subunit rho-1 (Homo sapiens, UniProt P24046); experiment: Agonist activity at recombinant human GABA-A rho-1 receptor transiently expressed in human tsA201 cells assessed as GABA-induced maximum response incubated for 30 mins and measured up to 90 secs by FMP dye based FLIPR membrane potential blue assay relative to GABA; assay type: cell-based
T1 sequence (P24046 whole entry): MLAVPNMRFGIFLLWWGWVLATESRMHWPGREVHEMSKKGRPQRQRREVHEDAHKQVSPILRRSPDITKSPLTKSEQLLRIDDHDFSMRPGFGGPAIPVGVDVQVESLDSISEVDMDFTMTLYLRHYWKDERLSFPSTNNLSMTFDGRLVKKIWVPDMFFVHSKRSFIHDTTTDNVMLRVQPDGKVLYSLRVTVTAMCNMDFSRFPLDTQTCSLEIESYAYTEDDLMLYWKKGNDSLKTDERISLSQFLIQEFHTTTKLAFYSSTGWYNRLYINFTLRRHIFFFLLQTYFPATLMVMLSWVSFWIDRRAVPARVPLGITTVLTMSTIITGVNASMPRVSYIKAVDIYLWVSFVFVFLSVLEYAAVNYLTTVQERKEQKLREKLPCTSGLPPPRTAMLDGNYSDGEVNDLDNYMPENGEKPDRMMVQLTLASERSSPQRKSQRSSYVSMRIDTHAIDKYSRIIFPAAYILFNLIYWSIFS

[2] = Ionization constant, pKa2 of the compound at 1 mM by potentiometric titration assay; assay type: physicochemical
[3] = biological target: Gamma-aminobutyric acid receptor subunit alpha-5/beta-2/gamma-2 (Homo sapiens) (UniProt P47870+P18507+P31644); experiment: Agonist activity at recombinant human GABA-A alpha5beta2gamma2S receptor transiently expressed in human tsA201 cells assessed as GABA-induced maximum response incubated for 30 mins and measured up to 90 secs by FMP dye based FLIPR membrane potential blue assay relative to GABA; assay type: cell-based
[4] = organism: Homo sapiens; experiment: Agonist activity at recombinant human GABA-A alpha3beta2gamma2S receptor transiently expressed in human tsA201 cells at >= 100 uM incubated for 30 mins and measured up to 90 secs by FMP dye based FLIPR membrane potential blue assay; assay type: cell-based
[5] = biological target: T1, Gamma-aminobutyric acid receptor subunit rho-1; experiment: Agonist activity at recombinant human GABA-A rho-1 receptor transiently expressed in human tsA201 cells incubated for 30 mins and measured up to 90 secs by FMP dye based FLIPR membrane potential blue assay; assay type: cell-based
[6] = biological target: GABA-A receptor; anion channel; experiment: Displacement of [3H]muscimol from GABA(A) receptor in Sprague-Dawley rat cortical synaptic membranes by liquid scintillation counting
[7] = biological target: T2, Gamma-aminobutyric acid receptor subunit alpha-4/beta-2/gamma-2 (Homo sapiens, UniProt P47870+P18507+P48169); experiment: (§1) Agonist activity at recombinant human GABA-A alpha4beta2gamma2S receptor transiently expressed in human tsA201 cells incubated for 30 mins and measured up to 90 secs by FMP dye based FLIPR membrane potential blue assay; assay type: cell-based
T2 sequence (P48169 whole entry, one chain of several): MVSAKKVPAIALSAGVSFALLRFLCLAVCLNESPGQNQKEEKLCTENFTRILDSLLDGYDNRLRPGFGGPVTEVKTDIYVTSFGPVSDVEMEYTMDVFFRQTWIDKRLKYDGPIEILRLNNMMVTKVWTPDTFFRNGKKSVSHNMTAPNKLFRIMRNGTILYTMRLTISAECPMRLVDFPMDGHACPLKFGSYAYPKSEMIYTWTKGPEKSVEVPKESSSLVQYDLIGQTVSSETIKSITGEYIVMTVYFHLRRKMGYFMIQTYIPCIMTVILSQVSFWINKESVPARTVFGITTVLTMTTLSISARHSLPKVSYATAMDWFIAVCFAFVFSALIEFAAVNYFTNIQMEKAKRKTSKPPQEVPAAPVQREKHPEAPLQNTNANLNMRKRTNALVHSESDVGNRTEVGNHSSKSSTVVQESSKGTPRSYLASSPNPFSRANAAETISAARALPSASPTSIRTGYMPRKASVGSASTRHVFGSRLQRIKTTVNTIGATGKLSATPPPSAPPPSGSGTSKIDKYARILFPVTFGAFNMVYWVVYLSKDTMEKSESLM

[8] = biological target: T3, Gamma-aminobutyric acid receptor subunit alpha-5/beta-2/gamma-2 (Homo sapiens, UniProt P18507+P31644+P47870); experiment: Agonist activity at recombinant human GABA-A alpha5beta2gamma2S receptor transiently expressed in human tsA201 cells incubated for 30 mins and measured up to 90 secs by FMP dye based FLIPR membrane potential blue assay; assay type: cell-based
T3 sequence (P47870 whole entry): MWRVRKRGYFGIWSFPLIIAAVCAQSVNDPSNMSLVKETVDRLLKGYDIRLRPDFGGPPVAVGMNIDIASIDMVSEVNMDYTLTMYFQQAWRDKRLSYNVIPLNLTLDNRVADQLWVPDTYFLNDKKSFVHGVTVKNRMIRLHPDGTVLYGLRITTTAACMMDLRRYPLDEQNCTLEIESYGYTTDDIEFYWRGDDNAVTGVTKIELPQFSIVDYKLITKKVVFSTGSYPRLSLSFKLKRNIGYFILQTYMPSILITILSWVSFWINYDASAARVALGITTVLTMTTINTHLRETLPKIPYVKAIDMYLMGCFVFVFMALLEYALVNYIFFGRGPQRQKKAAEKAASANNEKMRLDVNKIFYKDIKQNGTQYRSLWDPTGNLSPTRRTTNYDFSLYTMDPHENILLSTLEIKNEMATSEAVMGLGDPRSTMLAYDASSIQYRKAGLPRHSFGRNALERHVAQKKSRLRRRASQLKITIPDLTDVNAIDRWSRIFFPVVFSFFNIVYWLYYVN
T3 sequence (P18507 whole entry): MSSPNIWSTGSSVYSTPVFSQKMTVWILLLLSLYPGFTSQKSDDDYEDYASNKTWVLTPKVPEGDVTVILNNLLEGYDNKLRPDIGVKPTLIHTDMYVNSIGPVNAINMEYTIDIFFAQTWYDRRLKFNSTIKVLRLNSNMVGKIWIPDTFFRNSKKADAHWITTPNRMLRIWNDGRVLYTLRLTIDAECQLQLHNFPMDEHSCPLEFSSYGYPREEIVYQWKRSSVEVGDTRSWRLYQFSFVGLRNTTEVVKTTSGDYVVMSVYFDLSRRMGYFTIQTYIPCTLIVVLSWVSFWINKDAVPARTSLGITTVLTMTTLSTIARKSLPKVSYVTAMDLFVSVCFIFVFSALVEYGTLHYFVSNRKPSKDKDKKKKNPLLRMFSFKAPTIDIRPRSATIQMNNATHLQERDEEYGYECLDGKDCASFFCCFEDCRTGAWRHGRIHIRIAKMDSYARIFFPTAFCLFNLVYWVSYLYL
T3 sequence (P31644 whole entry): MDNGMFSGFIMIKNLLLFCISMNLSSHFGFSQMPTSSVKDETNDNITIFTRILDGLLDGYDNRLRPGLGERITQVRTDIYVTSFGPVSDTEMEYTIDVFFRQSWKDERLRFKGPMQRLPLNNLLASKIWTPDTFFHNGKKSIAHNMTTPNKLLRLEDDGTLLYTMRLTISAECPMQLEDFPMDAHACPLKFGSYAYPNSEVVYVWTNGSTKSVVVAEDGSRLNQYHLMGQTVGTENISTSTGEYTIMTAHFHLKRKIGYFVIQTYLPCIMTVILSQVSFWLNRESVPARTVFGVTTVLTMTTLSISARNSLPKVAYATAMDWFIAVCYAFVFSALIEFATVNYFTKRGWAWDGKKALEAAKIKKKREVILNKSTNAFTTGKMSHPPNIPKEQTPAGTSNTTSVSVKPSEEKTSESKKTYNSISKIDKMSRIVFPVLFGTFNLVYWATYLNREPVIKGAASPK

[9] = biological target: T2, Gamma-aminobutyric acid receptor subunit alpha-4/beta-2/gamma-2; experiment: Agonist activity at recombinant human GABA-A alpha4beta2gamma2S receptor transiently expressed in human tsA201 cells at >= 100 uM incubated for 30 mins and measured up to 90 secs by FMP dye based FLIPR membrane potential blue assay; assay type: cell-based
[10] = biological target: T4, GABA-A receptor; alpha-1/beta-2/gamma-2 (Homo sapiens) (UniProt P14867+P47870+P18507); experiment: Agonist activity at recombinant human GABA-A alpha1beta2gamma2S receptor transiently expressed in human tsA201 cells at >= 100 uM incubated for 30 mins and measured up to 90 secs by FMP dye based FLIPR membrane potential blue assay; assay type: cell-based
[11] = biological target: T2, Gamma-aminobutyric acid receptor subunit alpha-4/beta-2/gamma-2; experiment: Agonist activity at recombinant human GABA-A alpha4beta2gamma2S receptor transiently expressed in human tsA201 cells assessed as GABA-induced maximum response incubated for 30 mins and measured up to 90 secs by FMP dye based FLIPR membrane potential blue assay relative to GABA; assay type: cell-based
[12] = organism: Homo sapiens
[13] = biological target: T1, Gamma-aminobutyric acid receptor subunit rho-1; experiment: Agonist activity at recombinant human GABA-A rho-1 receptor transiently expressed in human tsA201 cells at >= 100 uM incubated for 30 mins and measured up to 90 secs by FMP dye based FLIPR membrane potential blue assay; assay type: cell-based
[14] = organism: Homo sapiens; experiment: Agonist activity at recombinant human GABA-A alpha3beta2gamma2S receptor transiently expressed in human tsA201 cells assessed as GABA-induced maximum response incubated for 30 mins and measured up to 90 secs by FMP dye based FLIPR membrane potential blue assay relative to GABA; assay type: cell-based
[15] = biological target: T4, GABA-A receptor; alpha-1/beta-2/gamma-2 (Homo sapiens); experiment: Agonist activity at recombinant human GABA-A alpha1beta2gamma2S receptor transiently expressed in human tsA201 cells assessed as GABA-induced maximum response incubated for 30 mins and measured up to 90 secs by FMP dye based FLIPR membrane potential blue assay relative to GABA; assay type: cell-based
[16] = biological target: T4, GABA-A receptor; alpha-1/beta-2/gamma-2 (Homo sapiens); experiment: (§2) Agonist activity at recombinant human GABA-A alpha1beta2gamma2S receptor transiently expressed in human tsA201 cells incubated for 30 mins and measured up to 90 secs by FMP dye based FLIPR membrane potential blue assay; assay type: cell-based
[17] = biological target: T5, GABA-A receptor; alpha-1/beta-2/gamma-2 (Homo sapiens, UniProt P14867+P47870+P18507); experiment: as §2; assay type: cell-based
T5 sequence (P14867 whole entry): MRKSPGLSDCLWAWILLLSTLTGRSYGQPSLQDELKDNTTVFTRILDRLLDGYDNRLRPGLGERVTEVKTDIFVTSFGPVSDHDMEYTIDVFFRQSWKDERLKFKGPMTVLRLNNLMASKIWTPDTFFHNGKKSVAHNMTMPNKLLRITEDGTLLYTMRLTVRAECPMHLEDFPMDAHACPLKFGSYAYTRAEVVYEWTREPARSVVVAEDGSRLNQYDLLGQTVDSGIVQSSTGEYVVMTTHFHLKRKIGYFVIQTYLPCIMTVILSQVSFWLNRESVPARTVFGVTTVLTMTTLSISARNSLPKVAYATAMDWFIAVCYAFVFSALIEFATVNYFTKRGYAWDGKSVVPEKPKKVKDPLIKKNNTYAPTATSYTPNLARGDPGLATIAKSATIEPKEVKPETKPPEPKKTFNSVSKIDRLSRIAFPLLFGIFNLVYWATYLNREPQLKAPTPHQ
T5 sequence (P47870 whole entry): T3 sequence (P47870 whole entry)
T5 sequence (P18507 whole entry): T3 sequence (P18507 whole entry)

[18] = cells; assay type: cell-based; conditions: Homo sapiens, tsA201, 0.5 h
[19] = biological target: Gamma-aminobutyric acid receptor subunit alpha-4/beta-2/gamma-2 (Homo sapiens, UniProt P18507+P47870+P48169); experiment: as §1; assay type: cell-based; conditions: read-out: EC50
Sequence of Gamma-aminobutyric acid receptor subunit alpha-4/beta-2/gamma-2 (Homo sapiens, UniProt P18507+P47870+P48169) (P48169 whole entry, one chain of several): as the sequence (P48169 whole entry, one chain of several) above

[20] = biological target: T1, Gamma-aminobutyric acid receptor subunit rho-1; experiment: Agonist activity at recombinant human GABA-A rho-1 receptor transiently expressed in human tsA201 cells at 300 uM incubated for 30 mins and measured up to 90 secs by FMP dye based FLIPR membrane potential blue assay; assay type: cell-based
[21] = biological target: T1, Gamma-aminobutyric acid receptor subunit rho-1; experiment: Antagonist activity at recombinant human GABA-A rho-1 receptor transiently expressed in human tsA201 cells incubated for 30 mins and measured up to 90 secs by FMP dye based FLIPR membrane potential blue assay; assay type: cell-based
[22] = biological target: T2, Gamma-aminobutyric acid receptor subunit alpha-4/beta-2/gamma-2; experiment: Agonist activity at recombinant human GABA-A alpha4beta2gamma2S receptor transiently expressed in human tsA201 cells at >= 300 uM incubated for 30 mins and measured up to 90 secs by FMP dye based FLIPR membrane potential blue assay; assay type: cell-based

Rmax [3] [%]	Ki [6] [µM]	EC50 [7]	pEC50 [7]	EC50 [8] [µM]	Activity [10]	Rmax [11]	Rmax [15]	pEC50 [16]	EC50 [17]	SMILES	Rmax [1]	pKa at 1000 µM [2]	Activity [13]	Rmax [14]	EC50 ([18]; read-out: EC50) [µM]	EC50 ([18]; read-out: pEC50 (converted)) [µM]	also measured
85	32	Not Active	inactive	24	Active	inactive	inactive	inactive	Not Active	Nc1nc(CC(=O)O)cs1	inactive	6.08	Active	inactive	–	–	Activity [4]: Active; EC50 [5]: Not Active; pEC50 [5]: inactive; Activity [9]: Active; pEC50 [12]: inactive
92	2.2	Not Active	inactive	4.5	Active	inactive	inactive	inactive	Not Active	CC1(CC(=O)O)CSC(N)=N1 (configuration not stated)	–	–	–	80%	26	25.7	Activity [20]: inactive; IC50 [21]: 300 µM; Activity [22]: Active

SMILES	Rmax [3] [%]	Ki [6] [µM]	EC50 [7]	pEC50 [7]	EC50 [8] [µM]	Activity [10]	Rmax [11]	Rmax [15]	pEC50 [16]	EC50 [17]	Rmax [1]	pKa at 1000 µM [2]	Activity [13]	Rmax [14]	EC50 ([18]; read-out: EC50) [µM]	EC50 ([18]; read-out: pEC50 (converted)) [µM]	also measured
O=C(O)Cc1c[nH]cn1 [IMIDAZOLE ACETIC ACID]	92	–	–	–	1.8	–	81%	46%	–	–	46%	7.13	Active	89%	8.1	8.13	EC50 ([5]; read-out: EC50): 4.6 µM; EC50 [19]: 19 µM
